# Reference: patent US20240327417A1, “HETEROCYCLIC COMPOUNDS” (BeiGene Switzerland GmbH, priority 2021, published 2024)
# Experiments:
# [1] = target: T1, Full length DGKα (D21-10BG, SignalChem) (Homo sapiens, UniProt P23743); test: Biochemical DGK IC50 assay (ADP-Glo, lipid micelle substrate), DGKα; details: 7.5 nM enzyme, 140 μM ATP, 80 μM DAG, 1 hour preincubation, 1 hour reaction, room temperature, read-out: IC50s for DGKα
# T1 construct: Full length DGKα (D21-10BG, SignalChem); purchased SignalChem D21-10BG
# Summary of the method: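 Full-length enzyme was assayed by ADP-Glo on DAG/PS lipid micelles at room temperature in HEPES/MgCl2/CaCl2 buffer with BSA, Na3VO4 and Tween-20, using a 1 h reaction and luminescence read-out.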
# [2] = target: T2, Full length DGKζ (in-house protein M1-V929) (Homo sapiens, UniProt Q13574); test: Biochemical DGK IC50 assay (ADP-Glo, lipid micelle substrate), DGKζ; details: 0.5 nM enzyme, 140 μM ATP, 80 μM DAG, 1 hour preincubation, 1 hour reaction, room temperature, read-out: IC50s for DGKζ
# T2 construct: His (N); TEV cleavage site (N); made in house; host or cells: Sf9 insect cells (baculovirus, Bac-to-Bac)
# Summary of the method: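 In-house full-length human DGKζ, baculovirus-expressed in Sf9 cells, was assayed with a DAG/PS lipid micelle substrate at room temperature. Buffer was 50 mM HEPES, 10 mM MgCl2, 0.01% BSA, 0.1 mM Na3VO4, 0.005% Tween-20, 0.01 mM CaCl2, with final compound 1.55˜10000 nM or 23.3˜150000 nM.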
# T2 sequence (Q13574 1-929 isoform Q13574-4): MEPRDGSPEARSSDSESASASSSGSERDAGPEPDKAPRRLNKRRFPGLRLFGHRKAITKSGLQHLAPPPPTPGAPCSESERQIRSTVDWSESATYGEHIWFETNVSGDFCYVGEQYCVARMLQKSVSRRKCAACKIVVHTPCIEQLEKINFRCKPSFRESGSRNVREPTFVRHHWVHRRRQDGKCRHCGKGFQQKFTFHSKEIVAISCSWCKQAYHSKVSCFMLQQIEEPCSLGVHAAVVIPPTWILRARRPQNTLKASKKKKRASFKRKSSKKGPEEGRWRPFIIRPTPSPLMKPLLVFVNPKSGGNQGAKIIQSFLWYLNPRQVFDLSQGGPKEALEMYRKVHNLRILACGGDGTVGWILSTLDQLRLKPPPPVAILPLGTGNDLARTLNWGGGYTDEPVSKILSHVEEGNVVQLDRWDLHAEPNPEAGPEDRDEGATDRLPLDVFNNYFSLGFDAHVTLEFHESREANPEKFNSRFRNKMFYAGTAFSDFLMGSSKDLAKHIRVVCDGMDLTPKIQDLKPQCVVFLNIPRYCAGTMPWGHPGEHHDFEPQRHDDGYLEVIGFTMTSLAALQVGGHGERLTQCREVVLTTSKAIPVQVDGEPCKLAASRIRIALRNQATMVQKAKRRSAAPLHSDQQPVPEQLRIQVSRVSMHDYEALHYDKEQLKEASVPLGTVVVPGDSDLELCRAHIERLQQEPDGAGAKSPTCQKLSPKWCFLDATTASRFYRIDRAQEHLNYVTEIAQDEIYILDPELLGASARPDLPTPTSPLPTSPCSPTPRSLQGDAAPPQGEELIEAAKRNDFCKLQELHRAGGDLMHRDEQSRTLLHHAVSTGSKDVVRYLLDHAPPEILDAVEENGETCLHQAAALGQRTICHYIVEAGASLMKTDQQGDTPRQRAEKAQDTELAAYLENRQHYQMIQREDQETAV
# T1 sequence (P23743 whole entry): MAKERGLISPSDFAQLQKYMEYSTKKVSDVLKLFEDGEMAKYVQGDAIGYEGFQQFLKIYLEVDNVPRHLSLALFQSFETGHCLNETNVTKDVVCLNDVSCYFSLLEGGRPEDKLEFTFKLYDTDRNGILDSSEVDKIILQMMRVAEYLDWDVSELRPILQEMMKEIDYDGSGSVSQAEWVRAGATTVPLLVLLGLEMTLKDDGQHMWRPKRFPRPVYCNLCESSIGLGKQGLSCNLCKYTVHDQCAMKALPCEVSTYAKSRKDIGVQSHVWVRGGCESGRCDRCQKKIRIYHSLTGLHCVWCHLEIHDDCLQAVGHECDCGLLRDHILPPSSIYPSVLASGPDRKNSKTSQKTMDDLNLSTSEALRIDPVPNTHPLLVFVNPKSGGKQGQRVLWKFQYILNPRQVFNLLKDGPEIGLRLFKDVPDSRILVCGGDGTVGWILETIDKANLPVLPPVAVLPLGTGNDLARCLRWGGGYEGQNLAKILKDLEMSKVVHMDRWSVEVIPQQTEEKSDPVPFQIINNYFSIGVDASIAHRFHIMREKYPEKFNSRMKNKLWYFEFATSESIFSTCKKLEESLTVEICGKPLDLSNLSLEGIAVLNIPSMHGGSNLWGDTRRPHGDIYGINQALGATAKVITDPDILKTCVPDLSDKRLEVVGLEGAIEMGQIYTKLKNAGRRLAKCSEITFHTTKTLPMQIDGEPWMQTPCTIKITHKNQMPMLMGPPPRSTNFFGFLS
Structure (SMILES),IC50 [1] [nM],IC50 [2] [nM]
"CC[C@H]1CN(C(C)c2ccc(C(C)C)nc2)[C@H](CC)CN1c1cc(=O)n(C)n2cc(CC#N)nc12 (single isomer, unassigned) [Compound A38a]",43,21
"[2H]C([2H])([2H])c1nc2ccc(C(C)N3C[C@H](CC)N(c4cc(=O)n(C)n5cc(CC#N)nc45)C[C@H]3CC)cc2s1 (single isomer, unassigned) [Compound A96b]",2080,861
"CC[C@H]1CN(C(C)c2ccc3scnc3c2)[C@H](CC)CN1c1cc(=O)n(C)n2cc(CC#N)nc12 (single isomer, unassigned) [Compound A65b]",157,158
"CC[C@H]1CN(C(C)c2ccc(OC(C)C)cc2)[C@H](CC)CN1c1cc(=O)n(C)n2cc(CC#N)nc12 (stereo partly drawn) [Compound A51, 2-(8-((2S,5R)-2,5-diethyl-4-(1-(4-isopropoxyphenyl)ethyl)piperazin-1-yl)-5-methyl-6-oxo-5,6-dihydroimidazo[1,2-b]pyridazin-2-yl)acetonitrile]",90,284
"CC[C@H]1CN(C(C)c2ccc3nc(C4CC4)sc3n2)[C@H](CC)CN1c1cc(=O)n(C)n2cc(CC#N)nc12 (single isomer, unassigned) [Compound A109a]",1490,1800
"CC[C@H]1CN(C(C)c2ccc3nc(CC4CC4)sc3n2)[C@H](CC)CN1c1cc(=O)n(C)n2cc(CC#N)nc12 (single isomer, unassigned) [Compound A110b]",61,15
"CC[C@H]1CN(C(C)c2ccc3nc(C)sc3c2)[C@H](CC)CN1c1cc(=O)n(C)n2cc(C=NOC)nc12 (single isomer, unassigned) [Compound A123a]",269,4890
"CC[C@H]1CN(C(C)c2ccc(OC)cn2)[C@H](CC)CN1c1cc(=O)n(C)n2cc(CC#N)nc12 (stereo partly drawn) [Compound A48, 2-(8-((2S,5R)-2,5-diethyl-4-(1-(5-methoxypyridin-2-yl)ethyl)piperazin-1-yl)-5-methyl-6-oxo-5,6-dihydroimidazo[1,2-b]pyridazin-2-yl)acetonitrile]",30,445
"CC[C@@H]1CN(c2cc(=O)n(C)n3cc(CC#N)nc23)[C@@H](C)CN1C(C)c1ccc(C(F)(F)F)cc1F (single isomer, unassigned) [Compound A17b]",823,4720
"CCC(c1ccc2nc(C)sc2n1)N1C[C@H](CC)N(c2cc(=O)n(C)n3cc(CC#N)nc23)C[C@H]1CC (single isomer, unassigned) [Compound A99b]",21,11
"CCc1nc2ccc(C(C)N3C[C@H](CC)N(c4cc(=O)n(C)n5cc(CC#N)nc45)C[C@H]3CC)cc2s1 (single isomer, unassigned) [Compound A100a]",297,19
"CC[C@H]1CN(C(C)c2ccc(OC)cc2)[C@H](CC)CN1c1cc(=O)n(C)n2cc(CC#N)nc12 (stereo partly drawn) [Compound A72, 2-(8-((2S,5R)-2,5-diethyl-4-(1-(4-methoxyphenyl)ethyl)piperazin-1-yl)-5-methyl-6-oxo-5,6-dihydroimidazo[1,2-b]pyridazin-2-yl)acetonitrile]",23,76
"CC[C@H]1CN(C(CCOC)c2ccc3nc(C)sc3c2)[C@H](CC)CN1c1cc(=O)n(C)n2cc(CC#N)nc12 (single isomer, unassigned) [Compound A102b]",735,623
"CC[C@H]1CN(C(C)c2ccc(C3CC3)nc2F)[C@H](CC)CN1c1cc(=O)n(C)n2cc(CC#N)nc12 (single isomer, unassigned) [Compound A42b]",1060,1250
"CC[C@H]1CN(C(C)c2ccc3cc(F)sc3n2)[C@H](CC)CN1c1cc(=O)n(C)n2cc(CC#N)nc12 (single isomer, unassigned) [Compound A105b]",3.3,48
"CC[C@H]1CN(C(C)c2ccc(C3CC3)nc2)[C@H](CC)CN1c1c(C#N)c(=O)n(C)n2cc(CC#N)nc12 (single isomer, unassigned) [Compound A75a]",420,276
"CC[C@H]1CN(C(C)c2ccc3nc(C)sc3n2)[C@H](CC)CN1c1c(C#N)c(=O)n(C)n2cc(CC#N)nc12 (single isomer, unassigned) [Compound A112a]",752,3500

Structure (SMILES),IC50 [1] [nM],IC50 [2] [nM]
"CC[C@H]1CN(C(C)c2ccc(F)cc2C(F)F)[C@H](CC)CN1c1cc(=O)n(C)n2cc(CC#N)nc12 (stereo partly drawn) [Compound A34, 2-(8-((2S,5R)-4-(1-(2-(difluoromethyl)-4-fluorophenyl)ethyl)-2,5-diethylpiperazin-1-yl)-5-methyl-6-oxo-5,6-dihydroimidazo[1,2-b]pyridazin-2-yl)acetonitrile]",3510,14
"CC[C@H]1CN(C(C)c2ccc(OC(C)C)nc2)[C@H](CC)CN1c1cc(=O)n(C)n2cc(CC#N)nc12 (single isomer, unassigned) [Compound A45a]",941,8
"CC[C@@H]1CN(c2cc(=O)n(C)n3cc(CC#N)nc23)[C@@H](C)CN1C(C)c1ccc2nccnc2c1 (single isomer, unassigned) [Compound A13b]",4180,3610
"CC#CCc1cn2c(n1)c(N1C[C@@H](CC)N(C(C)c3ccc4nc(C)sc4n3)C[C@@H]1CC)cc(=O)n2C (single isomer, unassigned) [Compound A115b]",2.7,49
"CC(c1ccc2c(c1)OC(C)(C)CO2)N1C[C@H](C)N(c2c(C#N)c(=O)n(C)n3cc(CC#N)nc23)C[C@H]1C (single isomer, unassigned) [Compound A27a]",2250,3
"CC(c1ccc2c(c1)OCO2)N1C[C@H](C)N(c2cc(=O)n(C)n3cc(CC#N)nc23)C[C@H]1C (stereo partly drawn) [Compound A29, 2-(8-((2S,5R)-4-(1-(benzo[d][1,3]dioxol-5-yl)ethyl)-2,5-dimethylpiperazin-1-yl)-5-methyl-6-oxo-5,6-dihydroimidazo[1,2-b]pyridazin-2-yl)acetonitrile]",296,474
"CCC(c1ccc(C(F)(F)F)cc1)N1C[C@H](CC)N(c2cc(=O)n(C)n3cc(CC#N)nc23)C[C@H]1CC (single isomer, unassigned) [Compound A77b]",454,1940
"[2H]C([2H])([2H])c1nc2ccc(C(C)N3C[C@H](CC)N(c4cc(=O)n(C([2H])([2H])[2H])n5cc(CC#N)nc45)C[C@H]3CC)cc2s1 (single isomer, unassigned) [Compound A97a]",79,24
"CC[C@H]1CN(C(C)c2ccc3nc(C)sc3n2)[C@H](CC)CN1c1c(Br)c(=O)n(C)n2cc(CC#N)nc12 (stereo partly drawn) [Compound A83, 2-(7-bromo-8-((2S,5R)-2,5-diethyl-4-(1-(2-methylthiazolo[5,4-b]pyridin-5-yl)ethyl)piperazin-1-yl)-5-methyl-6-oxo-5,6-dihydroimidazo[1,2-b]pyridazin-2-yl)acetonitrile]",42600,> 10000
"COc1cnc2ccc(C(C)N3C[C@H](C)N(c4cc(=O)n(C)n5cc(CC#N)nc45)C[C@H]3C)cc2n1 (stereo partly drawn) [Compound A20, 2-(8-((2S,5R)-4-(1-(3-methoxyquinoxalin-6-yl)ethyl)-2,5-dimethylpiperazin-1-yl)-5-methyl-6-oxo-5,6-dihydroimidazo[1,2-b]pyridazin-2-yl)acetonitrile]",1020,18
"CC[C@@H]1CN(c2cc(=O)n(C)n3cc(CC#N)nc23)[C@@H](C)CN1C(C)c1ccc2nc(C)sc2n1 (single isomer, unassigned) [Compound A84a]",169,52
"CC[C@H]1CN(C(C)c2ccc(F)cc2OC)[C@H](CC)CN1c1cc(=O)n(C)n2cc(CC#N)nc12 (stereo partly drawn) [Compound A32, 2-(8-((2S,5R)-2,5-diethyl-4-(1-(4-fluoro-2-methoxyphenyl)ethyl)piperazin-1-yl)-5-methyl-6-oxo-5,6-dihydroimidazo[1,2-b]pyridazin-2-yl)acetonitrile]",6420,110
"CCC(c1ccc2nc(C)sc2n1)N1C[C@H](CC)N(c2cc(=O)n(C)n3cc(CC#N)nc23)C[C@H]1C (single isomer, unassigned) [Compound A98a]",712,2940
"CC[C@H]1CN(C(C)c2ccc3nc(C)sc3n2)[C@H](CC)CN1c1cc(=O)n(C)n2cc(C=NOC)nc12 (single isomer, unassigned) [Compound A124d]",5.9,630
"Cc1cnc2ccc(C(C)N3C[C@H](C)N(c4c(F)c(=O)n(C)n5cc(CC#N)nc45)C[C@H]3C)cc2n1 (stereo partly drawn) [Compound A22, 2-(8-((2S,5R)-2,5-dimethyl-4-(1-(3-methylquinoxalin-6-yl)ethyl)piperazin-1-yl)-7-fluoro-5-methyl-6-oxo-5,6-dihydroimidazo[1,2-b]pyridazin-2-yl)acetonitrile]",10800,95
"CC#CCc1cn2c(n1)c(N1C[C@@H](CC)N(C(C)c3ccc4nc(C)sc4n3)C[C@@H]1CC)cc(=O)n2C (single isomer, unassigned) [Compound A115a]",288,> 10000
"Cc1cnc2ccc(C(C)N3C[C@H](C)N(c4cc(=O)n(C)n5cc(CC#N)nc45)C[C@H]3C)cc2n1 (single isomer, unassigned) [Compound A2b]",11600,11
